From ChEMBL document CHEMBL4507299, “Data for DCP probe PF-04554878” (2021)

How the values were obtained:
[1] = biological target: Serine/threonine-protein kinase DCLK1 (Homo sapiens) (UniProt O15075)
[2] = biological target: Myotonin-protein kinase (Homo sapiens) (UniProt Q09013)
[3] = biological target: Activin receptor type-2A (Homo sapiens) (UniProt P27037)
[4] = biological target: Calcium/calmodulin-dependent protein kinase type II subunit gamma (Homo sapiens) (UniProt Q13555)
[5] = biological target: 3-phosphoinositide-dependent protein kinase 1 (Homo sapiens) (UniProt O15530)
[6] = biological target: Ephrin type-B receptor 3 (Homo sapiens) (UniProt P54753)
[7] = biological target: Serine/threonine-protein kinase 16 (Homo sapiens) (UniProt O75716)
Chain of Serine/threonine-protein kinase 16 (Homo sapiens) (O75716 whole entry): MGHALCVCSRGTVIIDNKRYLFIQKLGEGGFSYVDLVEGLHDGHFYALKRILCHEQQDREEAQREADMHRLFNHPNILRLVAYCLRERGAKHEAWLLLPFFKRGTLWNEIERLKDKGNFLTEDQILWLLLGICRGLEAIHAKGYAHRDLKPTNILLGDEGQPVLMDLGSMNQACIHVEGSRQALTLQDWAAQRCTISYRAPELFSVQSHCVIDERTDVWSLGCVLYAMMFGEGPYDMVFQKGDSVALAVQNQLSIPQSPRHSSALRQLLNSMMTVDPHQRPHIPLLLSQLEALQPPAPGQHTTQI

[8] = biological target: Serine/threonine-protein kinase PAK 4 (Homo sapiens) (UniProt O96013)
[9] = biological target: Tyrosine-protein kinase TXK (Homo sapiens) (UniProt P42681)
[10] = test system: Tyrosine-protein kinase ABL1 (Homo sapiens), P00519 [E255K]
Chain of Tyrosine-protein kinase ABL1 (Homo sapiens), P00519 [E255K] (P00519 whole entry E255K): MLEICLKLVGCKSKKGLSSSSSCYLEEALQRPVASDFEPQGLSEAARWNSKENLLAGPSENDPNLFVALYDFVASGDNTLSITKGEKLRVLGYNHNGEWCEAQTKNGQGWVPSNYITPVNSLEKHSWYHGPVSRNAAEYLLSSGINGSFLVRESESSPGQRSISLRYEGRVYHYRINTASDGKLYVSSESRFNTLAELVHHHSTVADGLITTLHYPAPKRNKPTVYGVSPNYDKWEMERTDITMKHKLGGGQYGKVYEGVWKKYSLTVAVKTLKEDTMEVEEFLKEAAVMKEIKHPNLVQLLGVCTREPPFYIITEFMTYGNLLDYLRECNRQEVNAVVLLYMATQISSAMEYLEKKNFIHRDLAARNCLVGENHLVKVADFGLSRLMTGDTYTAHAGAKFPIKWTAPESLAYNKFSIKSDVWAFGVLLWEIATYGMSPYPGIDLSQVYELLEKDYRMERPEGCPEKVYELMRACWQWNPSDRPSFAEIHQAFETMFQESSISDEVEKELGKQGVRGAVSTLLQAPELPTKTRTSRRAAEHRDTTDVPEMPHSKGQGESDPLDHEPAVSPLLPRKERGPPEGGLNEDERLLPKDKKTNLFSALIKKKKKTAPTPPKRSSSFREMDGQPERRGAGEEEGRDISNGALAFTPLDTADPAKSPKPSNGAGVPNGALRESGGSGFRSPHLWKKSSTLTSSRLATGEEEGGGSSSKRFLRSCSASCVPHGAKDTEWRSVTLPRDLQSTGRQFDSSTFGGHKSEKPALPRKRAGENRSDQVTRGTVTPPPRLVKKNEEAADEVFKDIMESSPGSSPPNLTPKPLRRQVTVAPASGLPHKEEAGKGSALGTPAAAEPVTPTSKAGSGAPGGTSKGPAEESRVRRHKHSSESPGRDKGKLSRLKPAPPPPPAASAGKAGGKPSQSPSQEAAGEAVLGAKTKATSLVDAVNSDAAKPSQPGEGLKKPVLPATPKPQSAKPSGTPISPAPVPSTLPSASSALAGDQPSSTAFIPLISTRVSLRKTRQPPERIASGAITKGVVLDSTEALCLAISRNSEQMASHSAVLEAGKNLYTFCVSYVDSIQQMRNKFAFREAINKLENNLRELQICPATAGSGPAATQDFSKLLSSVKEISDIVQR

[11] = test system: Epidermal growth factor receptor (Homo sapiens), P00533 [UNDEFINED MUTATION]
[12] = biological target: Leukocyte tyrosine kinase receptor (Homo sapiens) (UniProt P29376)
[13] = biological target: Cyclin-dependent kinase 17 (Homo sapiens) (UniProt Q00537)
[14] = biological target: Serine/threonine-protein kinase tousled-like 2 (Homo sapiens) (UniProt Q86UE8)
[15] = biological target: Rhodopsin kinase GRK1 (Homo sapiens) (UniProt Q15835)
[16] = biological target: Microtubule-associated serine/threonine-protein kinase 1 (Homo sapiens) (UniProt Q9Y2H9)
[17] = biological target: Muscle, skeletal receptor tyrosine-protein kinase (Homo sapiens) (UniProt O15146)
[18] = biological target: Serine/threonine-protein kinase 32A (Homo sapiens) (UniProt Q8WU08)
Chain of Serine/threonine-protein kinase 32A (Homo sapiens) (Q8WU08 whole entry): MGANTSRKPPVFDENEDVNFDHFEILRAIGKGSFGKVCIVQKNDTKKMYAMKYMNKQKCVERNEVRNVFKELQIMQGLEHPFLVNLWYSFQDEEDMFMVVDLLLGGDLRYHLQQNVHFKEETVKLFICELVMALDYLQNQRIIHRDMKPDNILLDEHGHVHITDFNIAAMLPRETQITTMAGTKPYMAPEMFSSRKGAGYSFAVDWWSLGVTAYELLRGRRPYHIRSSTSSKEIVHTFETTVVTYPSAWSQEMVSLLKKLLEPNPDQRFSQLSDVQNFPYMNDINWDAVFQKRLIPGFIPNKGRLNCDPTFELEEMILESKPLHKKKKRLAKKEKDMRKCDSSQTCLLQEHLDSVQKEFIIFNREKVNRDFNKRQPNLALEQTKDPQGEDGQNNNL

[19] = biological target: Serine/threonine-protein kinase pim-3 (Homo sapiens) (UniProt Q86V86)
[20] = test system: Phosphatidylinositol 4,5-bisphosphate 3-kinase catalytic subunit alpha isoform (Homo sapiens), P42336 [Q546K]
Chain of Phosphatidylinositol 4,5-bisphosphate 3-kinase catalytic subunit alpha isoform (Homo sapiens), P42336 [Q546K] (P42336 whole entry Q546K, canonical isoform): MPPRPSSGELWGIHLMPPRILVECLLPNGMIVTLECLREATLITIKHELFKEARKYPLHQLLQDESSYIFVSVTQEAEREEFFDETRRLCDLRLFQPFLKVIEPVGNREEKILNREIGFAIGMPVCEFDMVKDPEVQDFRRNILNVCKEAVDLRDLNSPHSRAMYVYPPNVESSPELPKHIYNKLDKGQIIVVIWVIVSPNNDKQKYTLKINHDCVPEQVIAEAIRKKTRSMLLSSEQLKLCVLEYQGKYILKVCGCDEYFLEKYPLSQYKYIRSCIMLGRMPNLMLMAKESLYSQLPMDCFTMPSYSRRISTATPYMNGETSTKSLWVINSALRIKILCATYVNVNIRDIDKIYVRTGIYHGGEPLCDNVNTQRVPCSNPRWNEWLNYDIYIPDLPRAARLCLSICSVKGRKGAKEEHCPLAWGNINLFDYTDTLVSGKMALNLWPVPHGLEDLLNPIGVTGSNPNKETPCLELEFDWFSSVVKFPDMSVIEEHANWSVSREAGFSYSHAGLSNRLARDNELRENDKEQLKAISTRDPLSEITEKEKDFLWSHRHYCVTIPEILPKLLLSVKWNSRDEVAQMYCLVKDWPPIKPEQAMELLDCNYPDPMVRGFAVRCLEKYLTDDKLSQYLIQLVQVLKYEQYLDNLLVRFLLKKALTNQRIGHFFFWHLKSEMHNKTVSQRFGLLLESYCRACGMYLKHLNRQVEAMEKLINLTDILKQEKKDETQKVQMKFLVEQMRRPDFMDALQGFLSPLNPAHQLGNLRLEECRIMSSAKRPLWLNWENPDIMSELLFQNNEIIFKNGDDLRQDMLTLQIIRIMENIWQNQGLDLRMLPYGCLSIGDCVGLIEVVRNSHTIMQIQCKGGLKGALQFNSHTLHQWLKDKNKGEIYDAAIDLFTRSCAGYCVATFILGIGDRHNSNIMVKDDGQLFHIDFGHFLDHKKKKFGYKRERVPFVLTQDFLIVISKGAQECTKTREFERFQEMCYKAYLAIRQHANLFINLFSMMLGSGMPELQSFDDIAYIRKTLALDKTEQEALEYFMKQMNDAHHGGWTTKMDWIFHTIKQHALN

[21] = biological target: Rho-associated protein kinase 1 (Homo sapiens) (UniProt Q13464)
Chain of Rho-associated protein kinase 1 (Homo sapiens) (Q13464 2-1354 limits assumed): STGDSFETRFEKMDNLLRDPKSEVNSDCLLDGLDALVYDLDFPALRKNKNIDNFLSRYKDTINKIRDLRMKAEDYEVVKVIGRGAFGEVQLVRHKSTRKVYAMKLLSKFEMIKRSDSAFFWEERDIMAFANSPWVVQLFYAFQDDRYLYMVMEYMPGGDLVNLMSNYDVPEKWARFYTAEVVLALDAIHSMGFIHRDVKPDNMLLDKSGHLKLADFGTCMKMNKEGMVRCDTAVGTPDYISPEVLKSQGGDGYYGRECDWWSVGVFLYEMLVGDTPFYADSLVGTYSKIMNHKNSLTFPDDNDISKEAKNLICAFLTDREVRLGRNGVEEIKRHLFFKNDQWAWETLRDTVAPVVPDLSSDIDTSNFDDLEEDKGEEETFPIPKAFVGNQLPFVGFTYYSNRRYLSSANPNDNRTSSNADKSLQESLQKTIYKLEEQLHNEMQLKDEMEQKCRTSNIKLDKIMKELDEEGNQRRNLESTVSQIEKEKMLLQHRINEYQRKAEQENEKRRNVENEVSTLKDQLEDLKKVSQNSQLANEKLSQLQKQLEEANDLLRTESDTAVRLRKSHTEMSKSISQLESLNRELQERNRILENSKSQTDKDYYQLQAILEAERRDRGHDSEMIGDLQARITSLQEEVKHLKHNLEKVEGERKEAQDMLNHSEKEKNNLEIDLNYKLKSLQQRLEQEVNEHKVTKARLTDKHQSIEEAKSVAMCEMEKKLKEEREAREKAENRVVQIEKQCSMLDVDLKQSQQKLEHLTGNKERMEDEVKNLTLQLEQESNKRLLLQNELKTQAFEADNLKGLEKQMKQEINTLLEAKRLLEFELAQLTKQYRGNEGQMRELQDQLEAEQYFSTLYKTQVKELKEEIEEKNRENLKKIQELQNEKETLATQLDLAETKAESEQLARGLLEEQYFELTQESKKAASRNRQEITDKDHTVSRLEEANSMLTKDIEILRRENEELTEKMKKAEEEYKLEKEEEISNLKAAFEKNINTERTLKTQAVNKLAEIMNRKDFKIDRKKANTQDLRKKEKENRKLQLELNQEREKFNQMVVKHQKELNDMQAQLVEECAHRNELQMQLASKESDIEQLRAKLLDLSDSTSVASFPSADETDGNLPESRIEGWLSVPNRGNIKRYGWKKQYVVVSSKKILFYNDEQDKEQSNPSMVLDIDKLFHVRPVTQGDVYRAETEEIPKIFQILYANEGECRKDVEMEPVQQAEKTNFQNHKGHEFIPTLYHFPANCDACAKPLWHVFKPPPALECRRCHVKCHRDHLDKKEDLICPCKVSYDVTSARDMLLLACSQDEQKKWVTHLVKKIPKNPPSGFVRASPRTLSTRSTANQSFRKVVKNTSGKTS

[22] = biological target: Phosphatidylinositol 4-phosphate 5-kinase type-1 gamma (Homo sapiens) (UniProt O60331)
[23] = biological target: Tyrosine-protein kinase Yes (Homo sapiens) (UniProt P07947)
[24] = biological target: Cyclin-dependent kinase 2 homolog (Plasmodium falciparum (isolate 3D7)) (UniProt P61075)
[25] = biological target: T1, Inhibitor of nuclear factor kappa-B kinase subunit epsilon (Homo sapiens) (UniProt Q14164)
T1 sequence (whole entry): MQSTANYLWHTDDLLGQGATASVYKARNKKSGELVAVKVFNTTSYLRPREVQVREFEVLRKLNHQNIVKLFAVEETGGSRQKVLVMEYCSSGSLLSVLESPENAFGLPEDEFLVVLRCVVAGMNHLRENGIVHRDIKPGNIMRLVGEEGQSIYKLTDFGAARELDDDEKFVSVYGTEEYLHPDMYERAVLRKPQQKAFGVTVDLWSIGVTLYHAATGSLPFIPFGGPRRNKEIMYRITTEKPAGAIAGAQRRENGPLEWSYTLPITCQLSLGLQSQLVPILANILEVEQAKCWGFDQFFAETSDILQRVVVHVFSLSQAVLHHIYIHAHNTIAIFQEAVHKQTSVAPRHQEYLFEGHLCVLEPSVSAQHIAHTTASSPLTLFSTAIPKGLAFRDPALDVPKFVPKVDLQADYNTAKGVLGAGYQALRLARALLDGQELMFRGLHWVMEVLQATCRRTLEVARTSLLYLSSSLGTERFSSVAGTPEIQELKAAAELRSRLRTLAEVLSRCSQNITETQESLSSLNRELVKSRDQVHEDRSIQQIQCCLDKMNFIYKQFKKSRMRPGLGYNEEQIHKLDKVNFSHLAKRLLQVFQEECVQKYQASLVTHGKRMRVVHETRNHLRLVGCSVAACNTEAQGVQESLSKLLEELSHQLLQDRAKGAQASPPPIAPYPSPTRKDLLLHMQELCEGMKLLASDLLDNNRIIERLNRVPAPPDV

[26] = test system: Receptor-type tyrosine-protein kinase FLT3 (Homo sapiens), P36888 [D835Y]
[27] = Compound concentration 100.0 nM
[28] = Compound concentration 1000.0 nM

Measured: residual activity

Chain of Serine/threonine-protein kinase DCLK1 (Homo sapiens) (O15075 whole entry): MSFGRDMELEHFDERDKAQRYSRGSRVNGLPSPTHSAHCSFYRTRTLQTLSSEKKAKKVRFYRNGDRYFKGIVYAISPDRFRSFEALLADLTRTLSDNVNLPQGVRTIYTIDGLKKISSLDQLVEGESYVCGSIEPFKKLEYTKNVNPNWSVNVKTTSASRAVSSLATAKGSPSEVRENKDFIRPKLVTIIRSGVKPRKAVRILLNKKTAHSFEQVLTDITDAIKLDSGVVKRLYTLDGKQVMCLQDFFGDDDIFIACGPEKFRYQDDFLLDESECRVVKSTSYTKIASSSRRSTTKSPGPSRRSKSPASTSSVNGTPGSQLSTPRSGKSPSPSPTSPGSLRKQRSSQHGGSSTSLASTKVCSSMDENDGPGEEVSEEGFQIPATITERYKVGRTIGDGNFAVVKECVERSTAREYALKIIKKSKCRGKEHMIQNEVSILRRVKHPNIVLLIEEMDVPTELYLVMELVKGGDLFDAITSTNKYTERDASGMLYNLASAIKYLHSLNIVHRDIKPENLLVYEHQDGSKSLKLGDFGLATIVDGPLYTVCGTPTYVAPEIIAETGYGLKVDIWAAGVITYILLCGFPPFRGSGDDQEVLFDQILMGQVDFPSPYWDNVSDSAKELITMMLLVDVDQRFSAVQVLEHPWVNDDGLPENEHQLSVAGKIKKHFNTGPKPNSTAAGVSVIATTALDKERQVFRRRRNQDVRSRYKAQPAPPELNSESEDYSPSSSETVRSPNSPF

CNC(=O)c1ccc(Nc2ncc(C(F)(F)F)c(NCc3nccnc3N(C)S(C)(=O)=O)n2)cc1 [DEFACTINIB]
inactive: [1]; [27] 99% | [3]; [27] 90% | [4]; [27] 79% | [5]; [27] 81% | [6]; [27] 87% | [8]; [27] 58% | [9]; [27] 98% | [10]; [27] 100% | [11]; [27] 93% | [12]; [27] 89% | [13]; [27] 88% | [14]; [27] 90% | [15]; [27] 99% | [16]; [27] 100% | [17]; [27] 100% | [18]; [27] 71% | [19]; [27] 82% | [21]; [27] 100% | [22]; [27] 100% | [23]; [27] 100% | [24]; [27] 89% | [25]; [27] 99%
active: [2]; [27] 16% | [7]; [27] 7.7% | [20]; [27] 17% | [26]; [27] 5.9%

CN(c1ccnc(CNc2nc(Nc3ccc4c(c3)CC(=O)N4)ncc2C(F)(F)F)n1)S(C)(=O)=O [PF-00911705]
inactive: [1]; [28] 57% | [3]; [28] 100% | [4]; [28] 100% | [5]; [28] 54% | [6]; [28] 95% | [8]; [28] 52% | [9]; [28] 91% | [11]; [28] 83% | [12]; [28] 100% | [13]; [28] 85% | [14]; [28] 100% | [15]; [28] 74% | [16]; [28] 69% | [17]; [28] 92% | [18]; [28] 72% | [19]; [28] 77% | [20]; [28] 93% | [22]; [28] 91% | [23]; [28] 77% | [24]; [28] 75%
active: [2]; [28] 23% | [7]; [28] 1.5% | [10]; [28] 34% | [21]; [28] 49% | [25]; [28] 18% | [26]; [28] 2%
